According to PMC10107917 (ACS Medicinal Chemistry Letters, 2023):
Like-named read-outs stand apart in the source and are kept apart here. Bridge positions count the residues as written; N and C are the ends. Peptide text beside a SMILES is read from it.

Molecular target: T1, human recombinant furin (Homo sapiens, UniProt P09958)
T1 construct: Soluble human recombinant furin was kindly gifted; gift of Dr Anna Kwiatkowska (group of Prof. Robert Day, Université de Sherbrooke)
Format: biochemical
Settings: for Ki / IC50: ± SEM; for Ki: Cheng-Prusoff from IC50, competitive mode assumed, Km 1.90 µM; for IC50: triplicate, substrate 20 µM
Method: Initially, the activities of the furin inhibitors were screened at three concentrations, i.e., 2.4, 24.0, and 77.0 nM (Figure 4). For selected peptides 3, 5, and 6 and the reference FI, the inhibitory constants (Ki) were calculated (Table 2). Except for the bicyclic peptide 4, all of the inhibitors almost completely abolished the enzyme activity at the highest tested concentration. Peptide 4 was explicitly the weakest inhibitor in the series, also when compared with its monocyclic disulfide-bridged counterpart 1. When the inhibitory activities were analyzed at the lowest tested concentration (2.4 nM), three peptides (3, 5, and 6) reduced the furin activity to less than 50% of its initial noninhibited activity. All of them have an additional basic amino acid at their N-termini (in MD simulations this is depicted as a residue with number “0”). […] Such close inhibitory potency was not observed in the case of an analogous pair, i.e., 2 and 5. […] The two disulfide-bridged peptides, FI and 1, differ only at the P4 position, having Lys and Arg, respectively. […]
The IC50 values (inhibitor concentrations giving 50% inhibition of enzyme activity) were calculated from plots of enzyme activity (% of control sample) versus the inhibitor’s concentration using a four-parameter fit model (GraFit 5.0.12 Erithacus Software Ltd.). The IC50 values were determined from triplicate measurements with at least seven different inhibitor concentrations. The K i values […] were calculated using the Cheng-Prusoff equation, assuming the competitive mode of inhibition, according to the following relationship: IC50 = K i(1+S/Km). All measurements were performed using a Fluostar Omega microplate reader (BMG Labtech, Germany) and 96-well black plates (BRAND, Germany). Recombinant human matriptase-1/ST14 catalytic domain was purchased from R&D Systems, USA. Recombinant human matriptase-2 was obtained from Enzo Life Sciences, Switzerland.
Soluble human recombinant furin was kindly gifted by Dr Anna Kwiatkowska (group of Prof. Robert Day from Université de Sherbrooke).4
The following assay buffers were used: […] (matriptase-1 and matriptase-2), pH 7.5 100 mM HEPES with 1 mM CaCl 2 and 1.8 mg/mL BSA (furin). The substrates used in the assays were as follows: for matriptase-1 and matriptase-2 Boc-Gln-Ala-Arg-AMC (Pepta Nova, Germany) in final concentration of 5 µM, for furin […] (Pepta Nova, Germany) in final concentration of 20 µM. Enzymes concentrations were as follows: 1.25 ng/mL of matriptase-1, 1.51 U/mL for matriptase-2, and 1.1 nM for furin. In the case of matriptase-1 and matripase-2 concentrations were calculated according to information provided by the suppliers.
In short, the tested compounds were added to the appropriate protease in different concentrations and incubated in an assay buffer at 37 °C for 30 min. After this time, a solution of appropriate substrate was added. Reactions were monitored for at least 40 min at 37 °C. The final volume in each well was 200 µL for matriptases and 100 µL for furin. Measurements were carried out using excitation and emission wavelengths of 380 nm and 450 nm. The percentage inhibition of an enzyme was calculated relative to the control sample without an inhibitor. The K m value for furin substrate was determined by incubating the enzyme with its substrate in various concentrations as recommended.5 Plots of the substrate concentration versus the initial reaction velocity were analyzed according to Michaelis-Menten equation using GraFit 5.0.12 Erithacus Software Ltd. A double reciprocal (Lineweaver-Burk) plot was used to determine the Michaelis constant K m value. K m value determined for furin was 1.90 µM.
Total furin-like enzyme inhibition/activity in PANC-1 cell lysates
Cell line and cell culture. The pancreatic cancer cell line, PANC-1, was obtained from the American Type Culture Collection, ATCC (Manassas, USA). […]

T1 sequence (P09958 108-715 limits assumed): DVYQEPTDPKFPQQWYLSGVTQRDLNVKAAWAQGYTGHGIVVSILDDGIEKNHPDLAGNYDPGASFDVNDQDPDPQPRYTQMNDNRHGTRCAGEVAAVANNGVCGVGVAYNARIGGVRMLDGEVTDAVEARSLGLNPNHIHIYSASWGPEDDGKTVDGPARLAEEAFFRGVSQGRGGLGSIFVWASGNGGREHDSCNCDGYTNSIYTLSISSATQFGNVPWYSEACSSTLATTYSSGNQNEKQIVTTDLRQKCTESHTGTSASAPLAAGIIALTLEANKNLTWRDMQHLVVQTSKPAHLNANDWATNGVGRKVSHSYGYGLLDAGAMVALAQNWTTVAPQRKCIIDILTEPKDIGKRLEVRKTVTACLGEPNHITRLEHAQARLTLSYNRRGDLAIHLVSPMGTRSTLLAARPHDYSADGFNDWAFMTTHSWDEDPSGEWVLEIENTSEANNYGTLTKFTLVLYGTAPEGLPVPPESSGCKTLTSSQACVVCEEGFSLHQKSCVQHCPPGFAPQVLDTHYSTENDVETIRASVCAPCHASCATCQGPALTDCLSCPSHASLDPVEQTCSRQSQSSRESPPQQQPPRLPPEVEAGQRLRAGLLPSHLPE

Row | furin activity versus control with no inhibitor added (inhibitor 2.4 nM) [%] | furin activity versus control with no inhibitor added (inhibitor 24.0 nM) [%] | furin activity versus control with no inhibitor added (inhibitor 77.0 nM (highest tested concentration)) [%] | Ki [nM] | IC50 [nM] | SMILES
1 | 66.76 | 9.86 | 0.31 | 0.38 ± 0.02 | 4.42 ± 0.22 | CC[C@H](C)[C@@H]1NC(=O)[C@@H]2CCCN2C(=O)[C@@H]2CCCN2C(=O)[C@H]([C@@H](C)CC)NC(=O)[C@H](CO)NC(=O)[C@H](CCCCN)NC(=O)[C@H](CCCCN)NC(=O)[C@@H](NC(=O)[C@H](CCCNC(=N)N)NC(=O)[C@@H](N)CCCCN)CSSC[C@@H](C(=O)N[C@@H](Cc2ccccc2)C(N)=O)NC1=O [FI, Lys-Arg-Cys(&)-Lys-Lys-Ser-Ile-Pro-Pro-Ile-Cys(&)-Phe-NH2, reference compound] (H-KRCKKSIPPICF-NH2; disulfide 3-11; N-terminus assumed)
2 | – | – | – | 0.27 ± 0.02 | 3.07 ± 0.2 | CC[C@H](C)[C@@H]1NC(=O)[C@@H]2CCCN2C(=O)[C@@H]2CCCN2C(=O)[C@H]([C@@H](C)CC)NC(=O)[C@H](CO)NC(=O)[C@H](CCCCN)NC(=O)[C@H](CCCCN)NC(=O)[C@@H](NC(=O)[C@H](CCCNC(=N)N)NC(=O)[C@H](CCCNC(=N)N)NC(=O)[C@@H](N)CCCNC(=N)N)CSSC[C@@H](C(=O)N[C@@H](Cc2ccccc2)C(N)=O)NC1=O [inhibitor 3, Arg-Arg-Arg-Cys(&)-Lys-Lys-Ser-Ile-Pro-Pro-Ile-Cys(&)-Phe-NH2] (H-RRRCKKSIPPICF-NH2; disulfide 4-12)
3 | – | – | – | 0.21 ± 0.01 | 2.41 ± 0.12 | CC[C@H](C)[C@@H]1NC(=O)[C@@H]2CCCN2C(=O)[C@@H]2CCCN2C(=O)[C@H]([C@@H](C)CC)NC(=O)[C@H](CO)NC(=O)[C@H](CCCCN)NC(=O)[C@H](CCCCN)NC(=O)[C@@H]2CSSC[C@H](NC1=O)C(=O)N[C@@H](Cc1ccccc1)C(=O)N[C@@H](CCCCN)C(=O)N[C@@H](CCCNC(=N)N)C(=O)N[C@@H](CCCNC(=N)N)C(=O)N2 [inhibitor 5, &^1Lys-Arg-Arg-Cys(&^2)-Lys-Lys-Ser-Ile-Pro-Pro-Ile-Cys(&^2)-Phe&^1] (cyclo(KRRCKKSIPPICF); disulfide 4-12)
4 | – | – | – | 0.25 ± 0.01 | 2.91 ± 0.17 | CC[C@H](C)[C@@H]1NC(=O)[C@@H]2CCCN2C(=O)[C@@H]2CCCN2C(=O)[C@H]([C@@H](C)CC)NC(=O)[C@H](CO)NC(=O)[C@H](CCCCN)NC(=O)[C@H](CCCCN)NC(=O)[C@@H]2CSSC[C@H](NC1=O)C(=O)N[C@@H](Cc1ccccc1)C(=O)N[C@@H](CCCNC(=N)N)C(=O)N[C@@H](CCCNC(=N)N)C(=O)N[C@@H](CCCNC(=N)N)C(=O)N2 [inhibitor 6, &^1Arg-Arg-Arg-Cys(&^2)-Lys-Lys-Ser-Ile-Pro-Pro-Ile-Cys(&^2)-Phe&^1] (cyclo(RRRCKKSIPPICF); disulfide 4-12)
